Test results from patent US9975906B2, “Tricyclic heterocycle derivatives having HIV replication inhibitory effect” (Shionogi & Co., Ltd., priority 2014, dated 2018).

Target: T1, CYP1A2 (Homo sapiens, UniProt P05177)
T1 construct: enzyme, pooled human hepatic microsome 0.2 mg protein/mL; from tissue
T1 sequence (P05177 1-516): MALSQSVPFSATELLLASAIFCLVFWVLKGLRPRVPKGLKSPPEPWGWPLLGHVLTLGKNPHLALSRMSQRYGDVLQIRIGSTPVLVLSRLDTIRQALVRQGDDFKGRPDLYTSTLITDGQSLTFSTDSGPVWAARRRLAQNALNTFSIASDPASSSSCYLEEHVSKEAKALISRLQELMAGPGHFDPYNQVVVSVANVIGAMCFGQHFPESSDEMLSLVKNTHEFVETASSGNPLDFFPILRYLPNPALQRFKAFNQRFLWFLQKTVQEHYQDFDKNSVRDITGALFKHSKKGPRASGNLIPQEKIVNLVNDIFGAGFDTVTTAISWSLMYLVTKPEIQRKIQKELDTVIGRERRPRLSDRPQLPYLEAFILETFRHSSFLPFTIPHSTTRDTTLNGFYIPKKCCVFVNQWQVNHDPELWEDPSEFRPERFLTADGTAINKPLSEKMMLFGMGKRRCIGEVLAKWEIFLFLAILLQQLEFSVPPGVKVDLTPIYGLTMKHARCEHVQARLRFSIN
Test: CYP Inhibition Assay (7-ethoxyresorufin O-deethylation)
Type: in vitro ADME
Details: pooled human hepatic microsome, 0.5 μmol/L ethoxyresorufin, 15 minutes, 37° C.
Method: Using commercially available pooled human hepatic microsome, and employing, as markers, 7-ethoxyresorufin O-deethylation (CYP1A2), tolbutamide methyl-hydroxylation (CYP2C9), mephenytoin 4'-hydroxylation (CYP2C19), dextromethorphan O-demethylation (CYP2D6), and terfenadine hydroxylation (CYP3A4) as typical substrate metabolism reactions of human main five CYP enzyme forms (CYP1A2, 2C9, 2C19, 2D6, 3A4) an inhibitory degree of each metabolite production amount by a test compound was assessed. […] After the centrifugation at 3000 rpm for 15 minutes, resorufin (CYP1A2 metabolite) in the supernatant was quantified by a fluorescent multilabel counter and tolbutamide hydroxide (CYP2C9 metabolite), mephenytoin 4' hydroxide (CYP2C19 metabolite), dextrorphan (CYP2D6 metabolite), and terfenadine alcohol (CYP3A4 metabolite) were quantified by LC/MS/MS. A reaction system containing only DMSO which is a solvent for dissolving a drug was adopted as a control (100%), and the remaining activity (%) was calculated, then IC50 was calculated by reverse presumption with a logistic model using a concentration and an inhibition rate.

Cc1ccc(-c2c([C@H](OC(C)(C)C)C(=O)O)c(C)c3c4c2cc(-c2ccnc(-c5ccc6c(cnn6C)c5)c2)n4CCN3CCN(C)C)cc1 [Compound I-034]
IC50: > 20 µM
